Assay results as given in patent publication US5190938A, “Derivatives of 2-hydroxythiophene and -furan fused with a nitrogen-containing ring and their application in therapy” (Sanofi, priority 1989, dated 1993).
Where a name gives a salt, the structure may show the parent alone. Read-outs that look alike come from different tables or passages of the source.

Legend:
[1] = biological target: porcine pancreatic elastase (Sus scrofa, UniProt P00772); test: In vitro inhibition of elastase enzymatic activity (hydrolysis of Suc-Ala-Ala-Pro-LeupNA), Table I; assay type: biochemical; conditions: 25° C., pH 8.8, concentration in the final solution
Chain of porcine pancreatic elastase (P00772 27-266): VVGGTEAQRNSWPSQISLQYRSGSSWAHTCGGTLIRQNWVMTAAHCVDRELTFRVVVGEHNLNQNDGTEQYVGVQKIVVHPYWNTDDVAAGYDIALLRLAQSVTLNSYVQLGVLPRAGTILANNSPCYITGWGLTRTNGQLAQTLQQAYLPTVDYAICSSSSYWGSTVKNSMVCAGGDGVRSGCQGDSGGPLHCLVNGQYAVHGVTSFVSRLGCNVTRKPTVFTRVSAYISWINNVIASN
Method: (§1) a) In vitro inhibition of elastase enzymatic activity.
(§2) The variation of the rate of hydrolysis of a substrate specific of elastases was studied in the presence and absence of the test compound according to a conventional technique. The experiments were performed with porcine pancreatic elastase, and human neutrophil elastase extracted from purulent sputum; the enzyme substrate was a chromogenic tetrapeptide, N-succinyl-L-alanyl-L-alanyl-[…]-L-leucyl-p-nitroanilide, designated Suc-Ala-Ala-Pro-LeupNA, which, on hydrolysis, liberates p-nitroaniline, the appearance of which in the medium is followed in a spectrophotometer; alpha1 -antitrypsin was used as a standard inhibitor. The experiments were performed at 25° C., the spectrophotometric measurement being made at 410 nm.
(§3) The solution of substrate was prepared by dissolving 5.8 mg of anilide in 20 ml of buffer solution containing 24.22 g/l of Tris-HCl with 754 mg/l of CaCl2, adjusted to pH 8.8.
(§4) The solution of enzyme in the same buffer was at a concentration of 0.1 g/l, while the solutions of test compound in the same buffer were at concentrations of between 0.1 mM and 0.01 μM.
(§5) 200 μl of solution of substrate, 75 μl of buffer solution and 200 μl of solution of the test compound, or of buffer solution in the case of the controls, were mixed in tubes. After 20 minutes at 25° C., the tube was placed in the recording spectrophotometer and 25 μl of the solution of enzyme were added to this medium; the change in the optical density ΔOD was recorded for 30 seconds.
(§6) The percentage inhibition is defined as the difference between the change in OD for the control sample and that for the test sample, divided by the change for the control and multiplied by 100. [formula]

human leucocyte elastase = biological target: T1, human leucocyte elastase (Homo sapiens, UniProt P08246); test: In vitro inhibition of elastase enzymatic activity (hydrolysis of Suc-Ala-Ala-Pro-LeupNA), Table II; assay type: biochemical; conditions: human leucocyte (neutrophil) elastase from purulent sputum; 25° C.; pH 8.8; concentration in the final solution
T1 construct: human neutrophil elastase extracted from purulent sputum; from tissue; host or cells: purulent sputum
T1 sequence (P08246 30-247 limits assumed): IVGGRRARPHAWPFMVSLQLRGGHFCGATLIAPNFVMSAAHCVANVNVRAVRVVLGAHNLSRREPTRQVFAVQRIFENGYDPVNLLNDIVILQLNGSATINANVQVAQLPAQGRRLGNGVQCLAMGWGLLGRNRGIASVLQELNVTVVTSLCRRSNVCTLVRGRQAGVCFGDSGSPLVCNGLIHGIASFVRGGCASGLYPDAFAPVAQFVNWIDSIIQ
Method: as §1, §2, §3, §4, §5, §6

platelet aggregation = test: Platelet aggregation-inhibitory activity in rats (blood taken from treated animals, ADP or collagen added); assay type: in vivo; conditions: Rattus norvegicus, po, orally
Excerpt: b) Platelet aggregation-inhibitory activity in rats.

[2] = ADP, read-out: percentage inhibition of aggregation, ADP
[3] = collagen, read-out: percentage inhibition of aggregation, collagen

Row | Compound | IC50 [1] [µM] | IC50 (human leucocyte elastase) [µM] | inhibition at 100 mg/kg (platelet aggregation; [2]) [%] | inhibition at 100 mg/kg (platelet aggregation; [3]) [%]
1 | CC(C)(C)C(=O)Oc1cc2c(s1)CCN(Cc1ccccc1Cl)C2 [SR 26766, 5-(2-chlorobenzyl)-4,5,6,7-tetrahydrothieno[3,2-c]pyridyl-2 t-butyrate] | – | – | 61 | 62
2 | CCCC(=O)Oc1cc2c(s1)CCN(Cc1ccc(Cl)cc1)C2 [SR 26767] | 4.8 | 3.4 | – | –
3 | CC(C)(C)C(=O)Oc1cc2c(s1)CC[N+]([O-])(Cc1ccccc1Cl)C2 (stereo not shown) [SR 26831] | 5 | 2.5 | – | –
4 | CCCC(=O)Oc1cc2c(s1)CC[N+]([O-])(Cc1ccccc1Cl)C2 (stereo not shown) [SR 26832] | 7 | 5.6 | – | –
5 | CC(C)(C)C(=O)Oc1cc2c(s1)CCNC2 [SR 26842, 4,5,6,7,-tetrahydrothieno[3,2-c]pyrid-2-yl t-butyrate] | 10 | 3.2 | – | –
6 | CC(C)C(=O)Oc1cc2c(s1)CCNC2 [SR 26861, 4,5,6,7-Tetrahydrothieno[3,2-c]pyrid-2-yl isobutyrate, hydrochloride] | 6.4 | 2.6 | – | –
7 | CC(C)(C)C(=O)Oc1cc2c(o1)CCN(Cc1ccccc1Cl)C2 [SR 26938, 5-(2-chlorobenzyl)-4,5,6,7-tetrahydrofuro-[3,2-c]pyrid-2yl t-butyrate] | 3.6 | 3.1 | – | –
8 | CC(C)(C)C(=O)Oc1cc2c(s1)CC[N+]([O-])(Cc1ccc(Cl)cc1)C2 (stereo not shown) [SR 26977] | 2.5 | 1.8 | – | –
9 | CN1CCc2sc(OC(=O)C(C)(C)C)cc2C1 [SR 26984, 5-methyl-4,5,6,7-tetrahydrothieno[3,2-c]pyrid-2-yl t-butyrate] | 3.6 | 2.6 | – | –
10 | CC(C)(C)C(=O)Oc1cc2c(s1)CC[N+]([O-])(Cc1ccccc1)C2 (stereo not shown) [SR 26986] | 2.2 | 2.3 | – | –
11 | CC(C)(C)C(=O)Oc1cc2c(o1)CC[N+]([O-])(Cc1ccccc1Cl)C2 (stereo not shown) [SR 26993] | 1.7 | 3.1 | – | –
12 | CC(C)(C)C(=O)Oc1cc2c(s1)C[N+]([O-])(Cc1ccccc1Cl)CC2 (stereo not shown) [SR 26998] | 2.2 | 2.2 | – | –
13 | CC(C)(C)C(=O)Oc1cc2c(s1)CC[N+](C)([O-])C2 (stereo not shown) [SR 27165] | 10 | – | – | –
14 | CC(C)(C)C(=O)Oc1cc2c(s1)CC[N+](C)(Cc1ccccc1Cl)C2 (stereo not shown) [SR 27168] | 1.6 | – | – | –
15 | COc1ccc(CN2CCc3sc(OC(=O)C(C)(C)C)cc3C2)cc1 [SR 27261] | 4.5 | 3.2 | – | –
16 | COc1ccc(C[N+]2([O-])CCc3sc(OC(=O)C(C)(C)C)cc3C2)cc1 (stereo not shown) [SR 27262] | 1 | 2.6 | – | –
17 | CCCN1CCc2sc(OC(=O)C(C)(C)C)cc2C1 [SR 27318, 5-propyl-4,5,6,7-tetrahyirothieno[3,2-c]pyrid-2-yl t-butyrate] | 10 | 3 | – | –
18 | CCC[N+]1([O-])CCc2sc(OC(=O)C(C)(C)C)cc2C1 (stereo not shown) [SR 27325] | 15 | 0.7 | – | –
19 | CC(c1ccccc1)[N+]1([O-])CCc2sc(OC(=O)C(C)(C)C)cc2C1 (stereo not shown) [SR 27354] | 10 | 2.6 | – | –

Further lines, with some results ahead:

Row | IC50 [1] [µM] | IC50 (human leucocyte elastase) [µM] | Compound | inhibition at 100 mg/kg (platelet aggregation; [2]) [%] | inhibition at 100 mg/kg (platelet aggregation; [3]) [%]
20 | 4.5 | 3.4 | CC(c1ccccc1)N1CCc2sc(OC(=O)C(C)(C)C)cc2C1 (racemic) [SR 27319] | – | –
21 | 2 | 3.5 | CCCC(=O)Oc1cc2c(s1)CCN(Cc1ccccc1Cl)C2 [PCR 4094] | – | –
22 | 7 | 30 | CC(C)C(=O)Oc1cc2c(s1)CCN(Cc1ccc(Cl)cc1)C2 [SR 26769] | – | –
23 | 5.8 | 2.6 | CC(C)C(=O)Oc1cc2c(s1)CCN(Cc1ccccc1Cl)C2 [SR 26772] | – | –
24 | 9 | 3.4 | CC(C)(C)C(=O)Oc1cc2c(s1)CCN(Cc1ccccc1)C2 [SR 26827] | 48 | 21
25 | 8 | 24 | CC(C)C(=O)Oc1cc2c(s1)CCN(Cc1ccccc1)C2 [SR 26829] | – | –
26 | 6 | 3.6 | CC(C)C(=O)Oc1cc2c(s1)CC[N+]([O-])(Cc1ccccc1Cl)C2 (stereo not shown) [SR 26833] | – | –
27 | 4 | – | CC(C)C(=O)Oc1cc2c(s1)CN(Cc1ccccc1Cl)CC2 [SR 26862] | – | –
28 | 2.9 | 30 | COC(=O)C(c1ccccc1Cl)N1CCc2sc(OC(=O)C(C)C)cc2C1 (stereo not shown) [SR 26886] | – | –
29 | 24 | – | CCOC(=O)Oc1cc2c(s1)CC[N+]([O-])(Cc1ccccc1Cl)C2 (stereo not shown) [SR 26894] | – | –
30 | 32 | – | CC(=O)Oc1cc2c(s1)CCN(C(C(=O)N1CCCC1)c1ccccc1Cl)C2 (stereo not shown) [SR 26913] | – | –
31 | 25 | – | CC(=O)Oc1cc2c(s1)CC[N+]([O-])(C(C(=O)N1CCCC1)c1ccccc1Cl)C2 (stereo not shown) [SR 26914] | – | –
